Patent US7863446B2, “Heterocycles” (Orchid Research Laboratories Limited, priority 2006, dated 2011)

What was measured:
TNF-α [1] = experiment: LPS induced sepsis for measurement of TNF-α inhibition in mice; type: in vivo; conditions: Mus musculus; TNF alpha inhibition in mice sepsis model
Method: LPS Induced Sepsis for Measurement of TNF-α Inhibition in Mice
The LPS induced sepsis model in mice was performed as described by Les sekut et al (J Lab Clin Med 1994; 124:813-20). Female Swiss albino mice were selected and the body weights were equivalent within each group. The mice were fasted for 20 hours with free access to water. The mice were dosed orally with the test compound suspended in vehicle containing 0.5% Tween 80 in 0.25% Carboxy-methylcellulose sodium salt. The control mice were administered the vehicle alone. After 30 minutes of oral dosing, mice were injected with 500 μg of Lipopolysaccharide (Escherichia coli, LPS: B4 from Siga) in phosphate buffer saline solution into the intraperitoneal cavity of the mice. After 90 minutes of LPS administration mice were bled via retro-orbital sinus puncture. Blood samples were stored overnight at 4° C. Serum samples were collected by centrifuging the samples at 4000 rpm for 15 minutes at 4° C. Immediately the serum samples were analysed for TNF-α levels using commercially available mouse TNF-α ELISA kit (Amersham Biosciences) and assay was performed by the manufacturer instruction.
ED50 Measurement of TNF alpha Inhibition in Mice Sepsis Model

Male Balbc mice = experiment: IBD-DSS model (DSS induced colitis); type: in vivo; conditions: Day 1 to 6, mice
Method: Inhibitory Activity in IBD-DSS Model
DSS Induced colitis test was performed as described by Axelsson et al., 1998. Male Balbc mice were selected in the age of 7-8 weeks for the study. Colitis in mice was induced by providing DSS (2%) in the drinking water from day 1 to 6. Mice were dosed from Day 1 to 6 with test compound suspended in vehicle containing 0.25% carboxymethyl cellulose and 0.5% Tween 80. The control animals received vehicle alone. Body weight and disease activity index was recorded daily during the experiment. After 6 days of treatment, animals were sacrificed; colon weight and colon length was recorded.

Female Balb C = experiment: Psoriasis model (oxazolone induced dermatitis in mice); type: in vivo; conditions: topical on the ear, 24 hours after oxazolone
Method: Inhibitory Activity in Psoriasis Model
Oxazolone induced dermatitis in mice was performed as described in the literature. Female Balb C were selected in the age of 6-7 weeks for the study and 20-25 g. Mice were sensitized with oxazolone (15%) from Day 1 to day 6 by applying it on the shaved abdomen. Elicitation was done with oxazolone (2%) on the ear on day 7. Test compounds were applied topically on the ear 15 minutes and 6 hours post oxazolone application on day 7. 24 hours after oxazolone application, ear thickness is measured and ear were excised under anesthesia and weighed.

TNF-α [2] = experiment: In vitro measurement of TNF-α in human PBMC (LPS stimulated); type: cell-based
Procedure, shortened: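 Healthy-volunteer PBMC (0.5 million/well) in RPMI were pre-incubated with compound 15 min at 37 °C. They were then stimulated with E. coli B4 LPS 1 μg/ml for 18 h at 37 °C, 5% CO2. TNF-α in culture medium was measured by ELISA.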

NS(=O)(=O)c1cccc(-c2c(-c3ccc(F)cc3)nc(C(F)(F)F)nc2-n2ccnc2)c1 [Example 80, 3-[4-(4-Fluorophenyl)-6-(1H-imidazol-1-yl)-2-(trifluoromethyl)pyrimidin-5-yl]benzenesulfonamide]
ED50 (TNF-α [1]): 2.13 mg/kg | IBD-DSS Model % Inhibition of DAI at 50 mg/kg (Male Balbc mice): 35.94% | Psoriasis-acute-Oxazolone induced dermatitis % inhibition Ear Thick (Female Balb C): 19.2% | Psoriasis-acute-Oxazolone induced dermatitis % inhibition Ear Wt (Female Balb C): 18.9% | inhibition at 1 µM (TNF-α [2]; 1 μM, NA = No activity, read-out: TNF-α Inhibition (%) at Conc. (1 μM)): 30% | inhibition at 10 µM (TNF-α [2]; 10 μM, read-out: TNF-α Inhibition (%) at Conc. (10 μM)): 75.3%
